From patent US20090105251A1, “Renin inhibitors” (priority 2007, published 2009)

What follows are compounds tested against T1, Recombinant human renin (Homo sapiens, UniProt P00797) (assay: In vitro enzymatic activity assay of renin inhibitors (fluorogenic peptide substrate)). Conditions: recombinant human renin 3 nM, 1 μM substrate QXL520/HiLyteFluo488 peptide, pH 7.4, 37° C., fluorescence; values given as ranges; read-out: IC50 of Exemplified Compounds Against Renin, IC50.
T1 construct: isolate the active form (residues 67-406); made in house
T1 sequence (P00797 67-406): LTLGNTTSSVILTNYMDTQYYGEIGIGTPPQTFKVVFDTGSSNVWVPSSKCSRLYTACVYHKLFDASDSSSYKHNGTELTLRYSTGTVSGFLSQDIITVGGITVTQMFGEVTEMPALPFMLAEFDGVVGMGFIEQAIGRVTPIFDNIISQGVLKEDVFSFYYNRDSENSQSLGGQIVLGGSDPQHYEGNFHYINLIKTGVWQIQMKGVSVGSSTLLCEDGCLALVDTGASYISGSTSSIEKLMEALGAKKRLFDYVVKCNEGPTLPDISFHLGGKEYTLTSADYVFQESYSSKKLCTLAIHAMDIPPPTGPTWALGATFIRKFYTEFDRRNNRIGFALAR
Type: biochemical
Source text: Test compounds in varying concentrations may be reacted with recombinant human renin in the presence of substrate, e.g., QXL520-γ-Abu-Ile-His-Pro-Phe-His-Leu-Val-Ile-His-Thr-Lys (HiLyteFluo488)-Arg-OH (Anaspec, San Jose, Calif.). The reaction can be followed kinetically using fluorescence (excitation λ=485 nm; emission λ=538 nm). Inhibition constants (IC50) may be calculated by non-linear curve fitting of the compound concentrations and fluorescence intensities to the standard IC50 equation.
Solutions of test compounds in varying concentrations (≦2 mM final concentration) are prepared in dimethyl sulfoxide (DMSO) and then diluted into assay buffer comprising 50 mM Hepes, 1 mM EDTA, 1 mM DTT, 0.1 mg/ml BSA, 0.01% Brij35, pH 7.4. Alternatively, the assay can be performed with a high BSA concentration, wherein the buffer contains an additional 2% BSA.
Recombinant human renin (3 nM final concentration) is added to the dilutions and pre-incubated with the compounds for 10 minutes at 37° C. As described in Examples A-C above, human renin can be obtained by expressing preprorenin (residue 1-406) in mammalian cells, treating the prorenin (residues 24-406) contained in the culture supernatant with trypsin, and isolate the active form (residues 67-406). After pre-incubation, the reaction is initiated with 1 μM of substrate QXL520-γ-Abu-Ile-His-Pro-Phe-His-Leu-Val-Ile-His-Thr-Lys (HiLyteFluo488)-Arg-OH (Anaspec, San Jose, Calif.). The final DMSO in the assay is 5%. The total volume of the reaction mixture is 20 μL, which can be placed on Greiner 384-well small volume plates.
Renin activity may be determined via fluorescence (excitation λ=485 nm; emission λ=538 nm), e.g., on a Molecular Devices SPECTROmax GEMINI XPS. The fluorescence intensity is determined upon the addition of substrate and determined again after incubation at 37° C. for one hour. The fluorescence intensity of a blank (no inhibition) using vehicle alone is also determined. Renin activity is linearly proportional to the change in fluorescence observed (final−initial).
The percent inhibition of renin at a given compound concentration is defined as:
100%×[1−(Fcompound/Fblank)]
where Fcompound is the observed fluorescence at a given concentration of test compound and Fblank is the observed fluorescence in the presence of vehicle alone.
The pIC50 value (negative log of the molar concentration of the compound that produces 50% inhibition) of a test compound is calculated by non-linear least squares curve fitting of the equation:
Percent Inhibition=100%/(1+(10^−pIC50/10^log [I]))
to percent inhibition versus compound concentration. The 50% inhibitory concentration (IC50) of a test compound is calculated by raising 10 to the negative pIC50 (10^−pIC50).

| SMILES | IC50 [µM] |
| --- | --- |
| O=C(c1ccccc1-c1ccccc1Cl)N1CCNC[C@H]1Cc1ccccc1 [Example 5, ((R)-2-benzylpiperazin-1-yl)(2′-chlorobiphenyl-2-yl)methanone] | 1 to 50 |
| O=C(c1ncoc1-c1ccccc1)N1CCNC[C@H]1Cc1ccccc1 [Example 7, (R)-(2-benzylpiperazin-1-yl)(5-phenyloxazol-4-yl)methanone] | 1 to 50 |
| O=C(c1nccn1-c1ccccc1C(F)(F)F)N1CCNC[C@H]1Cc1ccccc1 [Example 8, ((R)-2-benzylpiperazin-1-yl)(1-(2-(trifluoromethyl)phenyl)-1H-imidazol-2-yl)methanone] | 50 to 100 |
| N#Cc1cccnc1Oc1ccccc1-c1ccsc1C(=O)N1CCNC[C@H]1Cc1ccccc1 [Example 11, 2-(2-(2-((R)-2-benzylpiperazine-1-carbonyl)thiophen-3-yl)phenoxy)nicotinonitrile] | 1 to 50 |
| Cc1nn(C)c(C(=O)N2CCNC[C@H]2Cc2ccccc2)c1-c1ccccc1Oc1ccccc1 [Example 13, ((R)-2-benzylpiperazin-1-yl)(1,3-dimethyl-4-(2-phenoxyphenyl)-1H-pyrazol-5-yl)methanone] | 1 to 50 |
| CCn1nc(C)c(-c2ccccc2Oc2ccccc2)c1C(=O)N1CCNC[C@H]1Cc1ccccc1 [Example 14, ((R)-2-benzylpiperazin-1-yl)(1-ethyl-3-methyl-4-(2-phenoxyphenyl)-1H-pyrazol-5-yl)methanone] | 1 to 50 |
| O=C(c1sccc1-c1cnn(Cc2ccccc2)c1)N1CCNC[C@H]1Cc1ccccc1 [Example 18, (R)-(3-(1-benzyl-1H-pyrazol-4-yl)thiophen-2-yl)(2-benzylpiperazin-1-yl)methanone] | 1 to 50 |
| N#Cc1ccccc1Sc1ccccc1C(=O)N1CCNC[C@H]1Cc1ccccc1 [Example 20, (R)-2-(2-(2-benzylpiperazine-1-carbonyl)phenylthio)benzonitrile] | 1 to 50 |
| O=C(c1cncn1-c1ccccc1-c1ccccc1)N1CCNC[C@H]1Cc1ccccc1 [Example 27, ((R)-2-benzylpiperazin-1-yl)(1-(biphenyl-2-yl)-1H-imidazol-5-yl)methanone] | 1 to 50 |
| Cc1n[nH]c(C)c1-c1ccccc1C(=O)N1CCNC[C@H]1Cc1ccccc1 [Example 28, ((R)-2-benzylpiperazin-1-yl)(2-(3,5-dimethyl-1H-pyrazol-4-yl)phenyl)methanone] | > 100 |
| Cc1noc(-c2ccccc2)c1C(=O)N1CCNC[C@H]1Cc1ccccc1 [Example 29, (R)-(2-benzylpiperazin-1-yl)(3-methyl-5-phenylisoxazol-4-yl)methanone] | 50 to 100 |
| O=C(c1ccccc1-c1ccc(F)cc1)N1CCNC[C@H]1Cc1ccccc1 [Example 31, (R)-(2-benzylpiperazin-1-yl)(4′-fluorobiphenyl-2-yl)methanone] | 1 to 50 |
| O=C(c1ccccc1-c1nc2ccccc2s1)N1CCNC[C@H]1Cc1ccccc1 [Example 32, (R)-(2-(benzo[d]thiazol-2-yl)phenyl)(2-benzylpiperazin-1-yl)methanone] | 1 to 50 |

Results, then the compound that gave them:

| IC50 [µM] | SMILES |
| --- | --- |
| > 100 | O=C(C1CC1c1ccccc1)N1CCNCC1Cc1ccccc1 (stereo in doubt) [Example 2, ((S)-2-benzylpiperazin-1-yl)(2-phenylcyclopropyl)methanone] |
| < 1 | O=C(c1sccc1-c1ccccc1Oc1ccccc1)N1CCNC[C@H]1Cc1ccccc1 [Example 1, ((R)-2-benzylpiperazin-1-yl)(3-(2-phenoxyphenyl)thiophen-2-yl)methanone] |
| < 1 | Cc1ccc(-c2ccccc2C(=O)N2CCNC[C@H]2Cc2ccccc2)cc1C [Example 3, (R)-(2-benzylpiperazin-1-yl)(3′,4′-dimethylbiphenyl-2-yl)methanone] |
| 1 to 50 | O=C(c1ccccc1-c1ccccc1)N1CCNC[C@H]1Cc1ccccc1 [Example 4, (R)-(2-benzylpiperazin-1-yl)(biphenyl-2-yl)methanone] |
| 1 to 50 | O=C(c1ccnn1-c1ccccc1)N1CCNC[C@H]1Cc1ccccc1 [Example 6, (R)-(2-benzylpiperazin-1-yl)(1-phenyl-1H-pyrazol-5-yl)methanone] |
| 1 to 50 | Cc1cc(C)c(C#N)c(Oc2ccccc2-c2ccsc2C(=O)N2CCNC[C@H]2Cc2ccccc2)n1 [Example 9, 2-(2-(2-((R)-2-benzylpiperazine-1-carbonyl)thiophen-3-yl)phenoxy)-4,6-dimethylnicotinonitrile] |
| 1 to 50 | N#Cc1ccccc1Oc1ccccc1-c1ccsc1C(=O)N1CCNC[C@H]1Cc1ccccc1 [Example 10, 2-(2-(2-((R)-2-benzylpiperazine-1-carbonyl)thiophen-3-yl)phenoxy)benzonitrile] |
| < 1 | O=C(c1ccsc1-c1ccccc1Oc1ccccc1)N1CCNC[C@H]1Cc1ccccc1 [Example 12, ((R)-2-benzylpiperazin-1-yl)(2-(2-phenoxyphenyl)thiophen-3-yl)methanone] |
| 1 to 50 | O=C(c1ccc(F)cc1-c1ccccc1Oc1ccccc1)N1CCNC[C@H]1Cc1ccccc1 [Example 15, ((R)-2-benzylpiperazin-1-yl)(5-fluoro-2′-phenoxybiphenyl-2-yl)methanone] |
| 1 to 50 | O=C(c1cc(F)ccc1-c1ccccc1Oc1ccccc1)N1CCNC[C@H]1Cc1ccccc1 [Example 16, ((R)-2-benzylpiperazin-1-yl)(4-fluoro-2′-phenoxybiphenyl-2-yl)methanone] |
| < 1 | Cn1cc(-c2ccccc2Oc2ccccc2)c(C(=O)N2CCNC[C@H]2Cc2ccccc2)n1 [Example 17, ((R)-2-benzylpiperazin-1-yl)(1-methyl-4-(2-phenoxyphenyl)-1H-pyrazol-3-yl)methanone] |
| 1 to 50 | O=C(c1ccsc1-c1ccccc1-c1ccccc1)N1CCNC[C@H]1Cc1ccccc1 [Example 19, ((R)-2-benzylpiperazin-1-yl)(2-(biphenyl-2-yl)-thiophen-3-yl)-methanone] |
| 1 to 50 | O=C(c1ccccc1Cc1ccccc1)N1CCNC[C@H]1Cc1ccccc1 [Example 21, (R)-(2-benzylphenyl)(2-benzylpiperazin-1-yl)methanone] |
| 1 to 50 | O=C(c1ccccc1)c1ccccc1C(=O)N1CCNC[C@H]1Cc1ccccc1 [Example 22, (R)-(2-benzoylphenyl)(2-benzylpiperazin-1-yl)methanone] |
| 1 to 50 | O=C(c1ccccc1OCc1ccccc1)N1CCNC[C@H]1Cc1ccccc1 [Example 23, (R)-(2-(benzyloxy)phenyl)(2-benzylpiperazin-1-yl)methanone] |
| 1 to 50 | O=C1CC(C(=O)N2CCNC[C@H]2Cc2ccccc2)CN1C(c1ccccc1)c1ccccc1 (stereo partly drawn) [Example 24, 1-benzhydryl-4-((R)-2-benzylpiperazine-1-carbonyl)pyrrolidin-2-one] |
| 50 to 100 | COc1ccc(C(=O)c2ccccc2C(=O)N2CCNC[C@H]2Cc2ccccc2)cc1 [Example 25, (R)-(2-benzylpiperazin-1-yl)(2-(4-methoxybenzoyl)phenyl)methanone] |
| > 100 | O=C(c1cncn1-c1cccc2ccccc12)N1CCNC[C@H]1Cc1ccccc1 [Example 26, ((R)-2-benzylpiperazin-1-yl)(1-(naphthalen-1-yl)-1H-imidazol-5-yl)methanone] |
| 1 to 50 | O=C(c1nc(-c2cccnc2)sc1-c1ccccc1)N1CCNC[C@H]1Cc1ccccc1 [Example 30, (R)-(2-benzylpiperazin-1-yl)(5-phenyl-2-(pyridin-3-yl)thiazol-4-yl)methanone] |
